For 24 compounds, IC50 results are on record in patent US9376418B2, “Substituted pyridine spleen tyrosine kinase (SYK) inhibitors” (Merck Sharp & Dohme Corp., priority 2012, dated 2016).

SMILES strings stand for the structures. Where only a bound is given, the exact number is not on record here.

For this assay, the target named is T1, recombinant human GST-SYK (Homo sapiens, UniProt P43405).
T1 construct: purchased Carna Biosciences 08-176
The assay can be described thus: Homogeneous Time-Resolved Fluorescence (HTRF) assay for the recombinant human Syk enzyme. The format is biochemical. Particulars: HTRF assay, recombinant human GST-SYK; IC50 given as class symbols; read-out: rhSYK Activity. Here is the method:
Homogeneous Time-Resolved Fluorescence (HTRF) Assay for the Recombinant Human Syk Enzyme
A recombinant GST-hSYK fusion protein was used to measure potency of compounds to inhibit human Syk activity. The recombinant human GST-SYK (Carna Biosciences #08-176) ([…]) was incubated with various concentrations of the inhibitor diluted in DMSO (0.1% final concentration) for 10 minutes at room temperature in 15 mM Tris-HCl (pH 7.5), 0.01% tween 20, 2 mM DTT in 384 well plate format. To initiate the reaction the biotinylated substrate peptide (250 nM final concentration) that contains the phosphorylation site for Syk was added with magnesium (5 mM final concentration) and ATP (25 μM final concentration). Final volume of the reaction was 10 μL. Phosphorylation of the peptide was allowed to proceed for 45′ at room temperature. To quench the reaction and detect the phosphorylated product, 2 nM of a Europium-anti-phosphotyrosine antibody (Perkin Elmer #AD0161) and 70 nM SA-APC (Perkin-Elmer #CR130-100) were added together in 15 mM Tris pH 7.5, 40 mM EDTA, 0.01% tween 20. Final volume of the quenching solution was 10 μL. The resulting HTRF signal was measured after 30 minutes on an EnVision (Perkin-Elmer) reader using a time-resolved fluorescence protocol.
Background: Time-resolved FRET reads energy transfer from a long-lived donor to a nearby acceptor.
Regarding `Cc1cc(Nc2nccc(C(F)(F)F)n2)cc(-c2ccc(NC(C)(CC(F)(F)F)C(=O)O)nc2)c1` (stereo not drawn) [Example 18.5, 4,4,4-Trifluoro-N-[5-(3-methyl-5-{[4-(trifluoromethyl)pyrimidin-2-yl]amino}phenyl)pyridin-2-yl]isovaline], the IC50 was below 100 nM. `CCOC(=O)Cc1ccc(-c2cccc(Nc3nccc(C(F)(F)F)n3)c2)nc1` [Example 2.5, ethyl [6-(3-{[4-(trifluoromethyl)pyrimidin-2-yl]amino}phenyl)pyridin-3-yl]acetate]: the IC50 was in the range of 100 to 1000 nM.

`Cc1cc(Nc2nccc(C(F)(F)F)n2)cc(-c2ccc(N3CC(O)C3)nc2)c1` [Example 7.36, 1-[5-(3-methyl-5-{[4-(trifluoromethyl)pyrimidin-2-yl]amino}phenyl)pyridin-2-yl]azetidin-3-ol]: the IC50 was below 100 nM. The same measure for `COc1ccnc(Nc2cc(C)cc(-c3ccc(C(C)(O)[C@H]4CC[C@H](C(=O)O)CC4)nc3)c2)n1` (single isomer, unassigned) [Example 9.28, trans-4-[(1R or 1S)-1-hydroxy-1-(5-{3-[(4-methoxypyrimidin-2-yl)amino]-5-methylphenyl}pyridin-2-yl)ethyl]cyclohexanecarboxylic acid]: below 100 nM; for `Cc1cc(Nc2nccc(C(F)(F)F)n2)cc(-c2ccc([C@]3(O)CC[C@@H](O)CC3)nc2)c1` [Example 9.58, cis-1-[5-(3-methyl-5-{[4-(trifluoromethyl)pyrimidin-2-yl]amino}phenyl)pyridin-2-yl]cyclohexane-1,4-diol]: below 100 nM. The same measure for `Cc1cc(Nc2nccc(C(F)(F)F)n2)cc(-c2cncc(C3(O)CCC(C(=O)O)C3)c2)c1` (stereo not drawn) [Example 9.5, 3-Hydroxy-3-[5-(3-methyl-5-{[4-(trifluoromethyl)pyrimidin-2-yl]amino}phenyl)pyridin-3-yl]cyclopentanecarboxylic acid]: below 100 nM; for `Cc1cc(Nc2nccc(C(F)(F)F)n2)cc(-c2ccc(C(=O)NCc3cncn3C)nc2)c1` [Example 16.15, N-[(1-methyl-1H-imidazol-5-yl)methyl]-5-(3-methyl-5-{[4-(trifluoromethyl)pyrimidin-2-yl]amino}phenyl)pyridine-2-carboxamide]: 100 to 1000 nM; for `CC(=O)NCCCNc1ccc(-c2cc(C)cc(Nc3nccc(C(F)(F)F)n3)c2)cn1` [Example 7.64, N-(3-{[5-(3-methyl-5-{[4-(trifluoromethyl)pyrimidin-2-yl]amino}phenyl)pyridin-2-yl]amino}propyl)acetamide]: below 100 nM. Regarding `COc1cc(-c2cc(C)cc(Nc3nccc(C(F)(F)F)n3)c2)ccn1` [Example 4.10], the IC50 fell in the range of 100 to 1000 nM. The same measure for `Cc1cc(Nc2nccc(C(F)(F)F)n2)cc(-c2ccc(NC3(C(=O)O)CCCC3)nc2)c1` [Example 7.80, 1-{[5-(3-methyl-5-{[4-(trifluoromethyl)pyrimidin-2-yl]amino}phenyl)pyridin-2-yl]amino}cyclopentanecarboxylic acid]: below 100 nM; for `Cc1cc(Nc2nccc(C(F)(F)F)n2)cc(-c2cncc(C3(O)CCNCC3)c2)c1` [Example 9.7, 4-[5-(3-Methyl-5-{[4-(trifluoromethyl)pyrimidin-2-yl]amino}phenyl)pyridin-3-yl]piperidin-4-ol]: below 100 nM.

Turning to `CCOC(=O)CCc1cncc(-c2cc(C)cc(Nc3nccc(C4CC4)n3)c2)c1` [Example 2.100], the IC50 was below 100 nM.

Take `COC(=O)Cn1cc(-c2ccc(-c3cc(C)cc(Nc4nccc(C(F)(F)F)n4)c3)cn2)nn1` [Example 25.1, Methyl {4-[5-(3-methyl-5-{[4-(trifluoromethyl)pyrimidin-2-yl]amino}phenyl)pyridin-2-yl]-1H-1,2,3-triazol-1-yl}acetate]: the IC50 was in the range of 100 to 1000 nM.

For the compound `Cc1cc(Nc2nccc(C(F)(F)F)n2)cc(-c2ccc(NCCc3cnccn3)nc2)c1` [Example 7.18, N-(3-methyl-5-{6-[(2-pyrazin-2-ylethyl)amino]pyridin-3-yl}phenyl)-4-(trifluoromethyl)pyrimidin-2-amine], the IC50 was below 100 nM.

As to `COc1nc(Nc2cc(C)cc(-c3ccc(N[C@H]4CC[C@H](C(=O)O)CC4)nc3)c2)ncc1Cl` [Example 2.118, trans-4-[(5-{3-[(5-chloro-4-methoxypyrimidin-2-yl)amino]-5-methylphenyl}pyridin-2-yl)amino]cyclohexanecarboxylic acid], the IC50 was 100 to 1000 nM. As to `Cc1cc(Nc2nccc(C(F)(F)F)n2)cc(-c2ccnc(C3(O)CCC(C(=O)O)C(C)(C)C3)c2)c1` (single isomer, unassigned) [Example 9.59, (1S,4R or 1R,4S)-4-hydroxy-2,2-dimethyl-4-[4-(3-methyl-5-{[4-(trifluoromethyl)pyrimidin-2-yl]amino}phenyl)pyridin-2-yl]cyclohexanecarboxylic acid], the IC50 is below 100 nM. For the compound `Cc1cc(Nc2nccc(C(F)(F)F)n2)cc(-c2ccc(C(=O)N(CCO)CCO)nc2)c1` [Example 16.60, N,N-bis(2-hydroxyethyl)-5-(3-methyl-5-{[4-(trifluoromethyl)pyrimidin-2-yl]amino}phenyl)pyridine-2-carboxamide], the IC50 was below 100 nM. On to `COc1ccnc(Nc2cc(C)cc(-c3ccc(CCC(=O)O)cn3)c2)n1` [Example 2.26, 3-(6-{3-[(4-methoxypyrimidin-2-yl)amino]-5-methylphenyl}pyridin-3-yl)propanoic acid], for which the IC50 was in the range of 100 to 1000 nM. In the case of `Cc1cc(Nc2nccc(C(F)(F)F)n2)cc(-c2ccc(N3CCCC4(CCCO4)C3)nc2)c1` (stereo not drawn) [Example 7.11, N-{3-methyl-5-[6-(1-oxa-7-azaspiro[4.5]dec-7-yl)pyridin-3-yl]phenyl}-4-(trifluoromethyl)pyrimidin-2-amine], the IC50 is 100 to 1000 nM. The same measure for `Cc1cc(Nc2nccc(C(F)(F)F)n2)cc(-c2ccc(CCc3noc(=O)[nH]3)nc2)c1` [Example 13.5, 3-{2-[5-(3-Methyl-5-{[4-(trifluoromethyl)pyrimidin-2-yl]amino}phenyl)pyridin-2-yl]ethyl}-1,2,4-oxadiazol-5(4H)-one]: below 100 nM. The same measure for `O=c1[nH]c2cc(-c3cccc(Nc4nccc(C(F)(F)F)n4)c3)cnc2[nH]1` [Example 2.44, 6-(3-{[4-(trifluoromethyl)pyrimidin-2-yl]amino}phenyl)-1,3-dihydro-2H-imidazo[4,5-b]pyridin-2-one]: below 100 nM; for `Cc1cc(Nc2nccc(C(F)(F)F)n2)cc(-c2ccc(N3CCC(F)(F)CC3)nc2)c1` [Example 7.56, N-{3-[6-(4,4-difluoropiperidin-1-yl)pyridin-3-yl]-5-methylphenyl}-4-(trifluoromethyl)pyrimidin-2-amine]: 100 to 1000 nM.

For the compound `Cc1cc(Nc2nccc(C(F)(F)F)n2)cc(-c2ccc(NC(C)(C#N)C(C)(C)C)nc2)c1` (stereo not drawn) [Example 18.3, 2,3,3-trimethyl-2-{[5-(3-methyl-5-{[4-(trifluoromethyl)pyrimidin-2-yl]amino}phenyl)pyridin-2-yl]amino}butanenitrile], the IC50 was 100 to 1000 nM.

As to `Cc1cc(Nc2nccc(C(F)(F)F)n2)cc(-c2ccc(N[C@@H](Cc3c[nH]cn3)C(=O)O)nc2)c1` [Example 7.112, N-[5-(3-methyl-5-{[4-(trifluoromethyl)pyrimidin-2-yl]amino}phenyl)pyridin-2-yl]-L-histidine], the IC50 was below 100 nM.
